Here are results for four molecules from patent publication US7678917B2, “Factor Xa inhibitors” (Hoffman-La Roche Inc., priority 2005, dated 2010).

Molecules are shown by their SMILES.

For the assay, the target named is T1, human factor Xa (Homo sapiens, UniProt P00742).
T1 construct: purchased Enzyme Research Laboratories
T1 sequence (P00742 235-488 limits assumed): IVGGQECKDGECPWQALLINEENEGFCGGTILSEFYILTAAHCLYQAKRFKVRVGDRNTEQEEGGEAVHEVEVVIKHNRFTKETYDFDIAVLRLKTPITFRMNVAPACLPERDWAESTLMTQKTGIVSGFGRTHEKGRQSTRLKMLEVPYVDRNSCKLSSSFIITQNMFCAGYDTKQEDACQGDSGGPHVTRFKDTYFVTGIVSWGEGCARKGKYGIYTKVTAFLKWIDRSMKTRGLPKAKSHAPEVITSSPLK
T1 sequence (P00742 41-179 partner limits assumed): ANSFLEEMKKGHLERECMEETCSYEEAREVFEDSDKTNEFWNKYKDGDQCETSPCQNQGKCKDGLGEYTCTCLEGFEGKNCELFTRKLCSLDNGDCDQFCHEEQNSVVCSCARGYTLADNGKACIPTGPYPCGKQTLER
Briefly: chromogenic peptide substrate assay, inhibition of factor Xa. It is filed as biochemical. Particulars: human factor Xa 3 nM, chromogenic substrate S-2222, pH 7.8, room temperature; apparent Ki from IC50 by Cheng-Prusoff. The protocol:
Factor Xa activity was measured spectrophotometrically in microtiter plates in a final volume of 150 μl using the following conditions: Inhibition of human factor Xa (Enzyme Research Laboratories) was tested at an enzyme concentration of 3 nM using the chromogenic substrate S-2222 (Chromogenix AB, Mölndal, Sweden) at […]. The reaction kinetics of the enzyme and the substrate were linear with both time and the enzyme concentration. The inhibitors were dissolved in DMSO and tested at various concentrations up to 100 μM. The inhibitors were diluted using HNPT buffer consisting of HEPES 100 mM, NaCl 140 mM, PEG 6000 0.1% and Tween 80 0.02%, pH 7.8. The cleavage of S-2222 by human factor Xa was followed at 405 nm for 5 minutes at room temperature. The velocity of the reaction was determined by the autoreader from the slope of the linear regression fit to 7 time points (1 minute). The initial velocity for each inhibitor concentration was determined by the slope of at least 4 time points in the linear phase by a linear regression fit […]. Apparent dissociation constants Ki were calculated according to Cheng and Prusoff [Cheng, Y. C.; Prusoff, W. H. Relationship between the inhibition constant (Ki) and the concentration of the inhibitor that causes 50 percent inhibition (IC50) of an enzyme reaction. Biochem. Pharmacol. 1973, 22, 3099-3108.] based on the IC50 and the respective Km, determined previously (Ki=IC50/(1+S/Km)). […] [Lottenberg R, Hall J A, Blinder M, Binder E P, Jackson C M., The action of thrombin on peptide p-nitroanilide substrates. Substrate selectivity and examination of hydrolysis under different reaction conditions. Biochim Biophys Acta. 1983 Feb. 15; 742(3):539-57]. According to Eadie [Eadie G. S. The inhibition of cholinesterase by physostigmine and prostigmine. J. Biol. Chem. 1942, 146, 85-93.], the Km for S-2222 amounted to 613 μM.
As to `O=C(NC[C@H]1C[C@H](C(=O)Nc2ccc(-n3ccccc3=O)cc2F)C[C@@H]1O)c1ccc(Cl)s1` (racemic) [Example 15C], the Ki worked out at 0.03 µM.

On to `O=C(N[C@H]1C[C@@H](C(=O)Nc2ccc(-n3ccccc3=O)cc2F)C[C@@H]1O)c1ccc(Cl)s1` [Example 1C, 5-chloro-thiophene-2-carboxylic acid {(1S,2S,4R)-4-[2-fluoro-4-(2-oxo-2H-pyridin-1-yl)-phenylcarbamoyl]-2-hydroxy-cyclopentyl}-amide], for which the Ki was determined as 0.015 µM.

Regarding `O=C(N[C@H]1C[C@@H](C(=O)Nc2ccc(-n3ccncc3=O)cc2F)C[C@@H]1O)c1ccc(Cl)s1` [Example 5, 5-chloro-thiophene-2-carboxylic acid {(1S,2S,4R)-4-[2-fluoro-4-(2-oxo-2H-pyrazin-1-yl)-phenylcarbamoyl]-2-hydroxy-cyclopentyl}-amide], the Ki amounted to 0.018 µM.

Regarding `CCO[C@H]1C[C@H](C(=O)Nc2ccc(-n3ccccc3=O)cc2F)C[C@@H]1NC(=O)c1ccc(Cl)s1` [Example 13B, 5-chloro-thiophene-2-carboxylic acid {(1S,2S,4R)-2-ethoxy-4-[2-fluoro-4-(2-oxo-2H-pyridin-1-yl)-phenylcarbamoyl]-cyclopentyl}-amide], the Ki turned out to be 0.006 µM.
